From patent US20150344466A1 (SUMITOMO CHEMICAL COMPANY, LIMITED, priority 2013, published 2015) come the findings set out here.

What all share (type): in vivo
The subject of experiment [1] is Blattella germanica. Kind of experiment: Knockdown spray test on Blattella germanica, 2.0% w/v oil formulation (Test Example 1). The note with it: topical, 0.25 h, active ingredient 2.0% w/v, 1.5 ml sprayed, within 15 minutes, read-out: knockdown rate of the test insects within 15 minutes. As for the experimental part:
Ten Blattella germanica (5 males and 5 females) were released in a test container (8.75 cm in diameter, 7.5 cm in height, and the bottom made of 16 mesh metallic wire) with the inner wall on which butter was applied, and the container was placed on the bottom of a test chamber (bottom: 46 cm×46 cm, height: 70 cm). From a height of 60 cm above the upper surface of the container, 1.5 ml of the test drug solution was sprayed using a spray gun (a spraying pressure of 0.42 kg/cm^2). Thirty seconds after spraying, the container was taken out from the test chamber, and after 2 minutes, 5 minutes and 15 minutes, the number of knocked-down insects was counted to obtain a knockdown rate. The knockdown rate was calculated by the following equation.
(§1) Knockdown Rate (%)=(Number of Knocked-down Insects/Number of Tested Insects)×100

The test system of experiment [2] is Musca domestica. Kind of experiment: Knockdown spray test on adult Musca domestica (Test Example 3). The following applies: topical, 0.25 h, active ingredient 2.0% w/v, 0.5 ml sprayed, within 15 minutes, read-out: knockdown rate of the test insects within 15 minutes. On the procedure:
Ten adult Musca domestica (five males and five females) were released in a polyethylene cup (bottom diameter: 10.6 cm), and the cup was covered with a 16-mesh nylon gauze. The polyethylene cup was placed on the bottom of a test chamber (bottom: 46 cm×46 cm, height: 70 cm). From a height of 30 cm above the upper surface of the polyethylene cup, 0.5 ml of the test drug solution was sprayed using a spray gun (a spraying pressure of 0.9 kg/cm^2). Immediately after spraying, the cup was taken out from the test chamber, and after 2 minutes, 5 minutes and 15 minutes, the number of knocked-down insects was counted to obtain a knockdown rate. The knockdown rate was calculated by the following equation.
as §1

For another experiment, the system named is Culex pipiens pallens. Nature of the experiment: Knockdown spray test on adult Culex pipiens pallens (Test Example 4). The following applies: topical, 0.25 h, active ingredient 0.1% w/v, 0.5 ml sprayed, within 15 minutes, read-out: knockdown rate of the test insects within 15 minutes. The method, boiled down: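 Knockdown counts were taken 2, 5 and 15 min after spraying and expressed as percent of the 10 adults tested. For the spray, 0.5 ml of solution was applied by spray gun (0.4 kg/cm^2) from 30 cm above a gauze-covered cup in a test chamber; the cup was taken out right after spraying.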

The subject of a further experiment is Plutella xylostella. Kind of experiment: Foliar spray test on Plutella xylostella on cabbage (Test Example 10). The note with it: 120 h, third instar larvae of Plutella xylostella on cabbage, 500 ppm spray 20 ml/cup, after five days, read-out: controlling value. On the procedure:
On the other hand, cabbage was planted in a polyethylene cup, and grown until the third-fourth true leaf was spread. The test spray solution was sprayed to the cabbage at a ratio of 20 ml/cup. After the drug solution sprayed on the cabbage was dried, 10 third instar larvae of Plutella xylostella were allowed to parasitize the cabbage. After five days, the number of Plutella xylostella was investigated, and the controlling value was calculated according to the following standard. Controlling value (%)={1−(Cb×Tai)/(Cai×Tb)}×100 In the equation, the symbols represent as follows. Cb: the number of insects in a non-treated section before treatment Cai: the number of insects in a non-treated section on observation Tb: the number of insects in a treated section before treatment Tai: the number of insects in a treated section on observation

The test system of experiment [3] is Blattella germanica. Nature of the experiment: Knockdown spray test on Blattella germanica, 0.1% w/v oil formulation (Test Example 2). The note with it: topical, 0.25 h, active ingredient 0.1% w/v, 1.5 ml sprayed, within 15 minutes, read-out: knockdown rate of the test insects within 15 minutes. A digest of the protocol: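 Ten German cockroaches (5 males, 5 females) in a mesh-bottomed, butter-walled container were sprayed with 1.5 ml test solution from 60 cm at 0.42 kg/cm^2 inside a chamber.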

Experiment [4] has as its system Musca domestica. Nature of the experiment: Filter paper/sucrose bait death rate test on Musca domestica (Test Example 5). The note with it: female imagoes of Musca domestica, 0.7 ml on filter paper, after 24 hours. A digest of the protocol: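 Ten female imagoes were confined in a sealed cup over a filter paper treated with 0.7 ml of test solution and 30 mg sucrose bait. Mortality was scored at 24 h and expressed as percent of tested insects killed.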

As for `CCCCc1cc(C(=O)NCC2CCOC2)no1` (stereo not shown) [(11), N-(tetrahydrofuran-3-ylmethyl)-5-butylisoxazole-3-carboxamide], the pest or weed control at 2 % strength with Blattella germanica [1] and in the experiment with Musca domestica [2] was at least 80% each time. In addition, the pest or weed control at 0.1 % strength in the experiment on Culex pipiens pallens is at least 80%.

As to `O=C(NCC1CCCCO1)c1cc(COCc2ccccc2)on1` (stereo not shown) [(14), N-(tetrahydropyran-2-ylmethyl)-5-benzyloxymethylisoxazole-3-carboxamide], the pest or weed control at 2 % strength in the experiment on Blattella germanica [1] and with Musca domestica [2] was at least 80% each time. Also, the pest or weed control at 0.1 % strength in the experiment on Culex pipiens pallens was at least 80%.

Consider `O=C(NCC1CCOC1)c1cc(COc2ccccc2)on1` (stereo not shown) [(23), N-(tetrahydrofuran-3-ylmethyl)-5-phenyloxymethylisoxazole-3-carboxamide], for which the pest or weed control at 2 % strength with Blattella germanica [1] is at least 80%. For the same molecule, the pest or weed control at 0.1 % strength with Culex pipiens pallens was at least 80%. Moreover, the pest or weed control at 500 ppm in the experiment with Plutella xylostella is at least 90%.

For the molecule `O=C(NCC1CCOC1)c1cc(COCc2cccc3ccccc23)on1` (stereo not shown) [(27), N-(tetrahydrofuran-3-ylmethyl)-5-(1-naphthylmethoxymethyl)isoxazole-3-carboxamide], the pest or weed control at 2 % strength in the experiment on Blattella germanica [1] and in the experiment with Musca domestica [2] was at least 80% in each case. For the same molecule, the pest or weed control at 0.1 % strength with Culex pipiens pallens was at least 80%.

Take `O=C(NCC1CCOC1)c1cc(COCc2cccc(C(F)(F)F)c2)on1` (stereo not shown) [(64), N-(tetrahydrofuran-3-ylmethyl)-5-(3-trifluoromethylbenzyloxymethyl)isoxazole-3-carboxamide]: the pest or weed control at 2 % strength in the experiment with Blattella germanica [1] and in the experiment on Musca domestica [2] was at least 80% throughout. In the experiment with Culex pipiens pallens, the pest or weed control at 0.1 % strength is at least 80%.

As for `O=C(NCC1CCOC1)c1cc(COCc2cccc(-c3ccccc3)c2)on1` (stereo not shown) [(113), N1-(tetrahydrofuran-3-ylmethyl)-5-(3-phenylbenzyloxymethyl)isoxazole-3-carboxamide], the pest or weed control at 2 % strength in the experiment on Blattella germanica [1] and with Musca domestica [2] was at least 80% in each case. Also, the pest or weed control at 0.1 % strength with Culex pipiens pallens was at least 80%.

On to `O=C(NCC1CCOC1)c1cc(COCC2COc3ccccc3O2)on1` (stereo not shown) [(120), N-(tetrahydrofuran-3-ylmethyl)-5-(1,4-benzodioxan-2-ylmethoxymethyl)isoxazole-3-carboxamide], for which the pest or weed control at 0.1 % strength in the experiment with Blattella germanica [3] and with Culex pipiens pallens was at least 80% in each case. Also, the pest or weed control at 2 % strength with Musca domestica [2] is at least 80%.

`O=C(NCC1CCOC1)c1cc(COCCC2CCCC2)on1` (stereo not shown) [(132), N-(tetrahydrofuran-3-ylmethyl)-5-(2-cyclopentylethyl)oxymethylisoxazole-3-carboxamide]: the pest or weed control at 0.1 % strength in the experiment with Blattella germanica [3] and in the experiment on Culex pipiens pallens was at least 80% each time. In addition, the pest or weed control at 2 % strength in the experiment with Musca domestica [2] was at least 80%. Further, in the experiment with Musca domestica [4], the pest or weed control at 500 ppm is at least 90%.

As for `O=C(NCC1CCOC1)c1cc(CCCOCc2ccccc2)on1` (stereo not shown) [(139), N-(tetrahydrofuran-3-ylmethyl)-5-(3-benzyloxypropyl)isoxazole-3-carboxamide], the pest or weed control at 2 % strength in the experiment on Blattella germanica [1] and in the experiment with Musca domestica [2] was at least 80% in each case. For the same molecule, the pest or weed control at 0.1 % strength in the experiment with Culex pipiens pallens was at least 80%.

`O=C(NCC1CCOC1)c1cc(CCCCOCc2ccccc2)on1` (stereo not shown) [(140), N-(tetrahydrofuran-3-ylmethyl)-5-(4-benzyloxybutyl)isoxazole-3-carboxamide]: the pest or weed control at 2 % strength in the experiment with Blattella germanica [1] and in the experiment with Musca domestica [2] was at least 80% in each case. Further, in the experiment with Culex pipiens pallens, the pest or weed control at 0.1 % strength was at least 80%.

Turning to `O=C(NCC1CCOC1)c1cc(CCCCCOCc2ccccc2)on1` (stereo not shown) [(141), N-(tetrahydrofuran-3-ylmethyl)-5-(5-benzyloxypentyl)isoxazole-3-carboxamide], the pest or weed control at 2 % strength with Blattella germanica [1] and with Musca domestica [2] was at least 80% in each case. Moreover, in the experiment on Culex pipiens pallens, the pest or weed control at 0.1 % strength is at least 80%.

For the molecule `O=C(NCC1CCOC1)c1cc(CCCCCCOCc2ccccc2)on1` (stereo not shown) [(143), N-(tetrahydrofuran-3-ylmethyl)-5-(6-benzyloxyhexyl)isoxazole-3-carboxamide], the pest or weed control at 2 % strength in the experiment on Blattella germanica [1] and with Musca domestica [2] was at least 80% each time. Also, the pest or weed control at 0.1 % strength with Culex pipiens pallens is at least 80%.

For the molecule `O=C(NCC1CCOC1)c1cc(Cc2ccc3ccccc3c2)on1` (stereo not shown) [(159), N-(tetrahydrofuran-3-ylmethyl)-5-(naphthalen-2-ylmethyl)isoxazole-3-carboxamide], the pest or weed control at 2 % strength in the experiment on Musca domestica [2] was at least 80%. In addition, the pest or weed control at 0.1 % strength in the experiment with Culex pipiens pallens was at least 80%.

With `O=C(NCC1CCOC1)c1cc(Cc2cccc3ccccc23)on1` (stereo not shown) [(160), N-(tetrahydrofuran-3-ylmethyl)-5-(naphthalen-1-ylmethyl)isoxazole-3-carboxamide], the pest or weed control at 2 % strength in the experiment with Musca domestica [2] is at least 80%. In the experiment with Culex pipiens pallens, the pest or weed control at 0.1 % strength was at least 80%.

As to `Cc1c(C(=O)NCC2CCOC2)noc1COCc1ccccc1` (stereo not shown) [(169), N-(tetrahydrofuran-3-ylmethyl)-(5-benzyloxymethyl-4-methyl) isoxazole-3-carboxamide], the pest or weed control at 0.1 % strength in the experiment with Blattella germanica [3] and with Culex pipiens pallens was at least 80% each time. The pest or weed control at 2 % strength in the experiment with Musca domestica [2] was at least 80%.

With `O=C(NCC1CCOC1)c1cc(COc2ccccc2Cl)on1` (stereo not shown) [(176), N-(tetrahydrofuran-3-ylmethyl)-5-(2-chlorophenoxymethyl)isoxazole-3-carboxamide], the pest or weed control at 0.1 % strength in the experiment on Blattella germanica [3] and in the experiment with Culex pipiens pallens was at least 80% each time. Further, the pest or weed control at 2 % strength in the experiment with Musca domestica [2] is at least 80%. Further, in the experiment with Musca domestica [4], the pest or weed control at 500 ppm is at least 90%.

For the molecule `Cc1c(C(=O)NCC2CCOC2)noc1COCc1ccc2ccccc2c1` (stereo not shown) [(213), N-(tetrahydrofuran-3-ylmethyl)-4-methyl-5-(2-naphthylmethoxymethyl)isoxazole-3-carboxamide], the pest or weed control at 0.1 % strength with Blattella germanica [3] and with Culex pipiens pallens was at least 80% in each case. Moreover, in the experiment with Musca domestica [2], the pest or weed control at 2 % strength was at least 80%.

For `O=C(NCC1CCOCC1)c1cc(CCCc2ccccc2)on1` [(235), N-(tetrahydropyran-4-ylmethyl)-5-(3-phenylpropyl)isoxazole-3-carboxamide], the pest or weed control at 0.1 % strength in the experiment with Blattella germanica [3] and in the experiment on Culex pipiens pallens was at least 80% in each case. Moreover, the pest or weed control at 2 % strength with Musca domestica [2] was at least 80%.

`O=C(NCC1CCOC1)c1cc(COC/C=C/c2ccccc2)on1` (stereo not shown) [(242), N-(tetrahydrofuran-3-ylmethyl)-5-(3-phenyl-(E)-2-propenyloxymethyl)isoxazole-3-carboxamide]: the pest or weed control at 2 % strength in the experiment on Musca domestica [2] is at least 80%. For the same molecule, in the experiment on Culex pipiens pallens, the pest or weed control at 0.1 % strength is at least 80%.

`O=C(NCC1CCOC1)c1cc(COCc2ccccc2F)on1` (stereo not shown) [(264), N-(tetrahydrofuran-3-ylmethyl)-5-(2-fluorobenzyloxymethyl)isoxazole-3-carboxamide]: the pest or weed control at 0.1 % strength in the experiment with Blattella germanica [3] and with Culex pipiens pallens was at least 80% throughout. The pest or weed control at 2 % strength in the experiment on Musca domestica [2] was at least 80%. This molecule also had a pest or weed control at 500 ppm in the experiment with Musca domestica [4] of at least 90%.

Regarding `O=C(NCC1CCOC1)c1cc(Cc2cccc(OC(F)(F)F)c2)on1` (stereo not shown) [(313), N-(tetrahydrofuran-3-ylmethyl)-5-(3-trifluoromethoxybenzyl) isoxazole-3-carboxamide], the pest or weed control at 0.1 % strength in the experiment with Blattella germanica [3] and with Culex pipiens pallens was at least 80% each time. Further, the pest or weed control at 500 ppm in the experiment with Musca domestica [4] and in the experiment on Plutella xylostella was at least 90% in each case.
